Laboratory results: US20230293469A1, “NOVEL PHARMACEUTICAL COMPOSITIONS” (NEUROPRO THERAPEUTICS, INC., priority 2020, published 2023)
“And” between values parts separate entries of the source, which are not always exact repeats. Identical values can stand only once.

Columns and labels:
[1] = Oral dose PK of NPT-2042 in rat; assay type: in vivo; settings: rat, rat
Procedure: Assays were performed to determine absolute bioavailability of NPT2042 in two species: dog and rat. The calculation of absolute bioavailability depends on four inputs: the areas under the curves (AUC) for oral and IV, and the oral and IV doses.
Testing was conducted to determine AUCs for an oral dose in rat.

[2] = IV bolus PK of NPT-2042 in rat; assay type: in vivo; settings: IV bolus 10 mg/kg
[3] = test system: Rat Microsomes; assay: Metabolite screening of NPT-2042 in rat microsomes; assay type: in vitro ADME; settings: NPT-2042 10 uM, microsomes 1 mg/mL
Procedure: (§1) Incubation of Test Compound in Microsomes • 1. Compound final concentration: 10 uM. • 2. Microsomes concentration 1 mg/mL. • 3. Incubate for 1 hour, with an NADPH regenerating system. • 4. 0.5 mL of incubation mixture at 0 min and 1 hour, mixed with 0.5 mL of acetonitrile. • 5. Vortex, and centrifuge at 13200 rpm for 10 min. • 6. Supernatant was transferred to a clean vial for LCMS analysis NADPH regenerating system (cofactor; consisting of NADP [0.340 mg/mL], G6P [1.56 mg/mL], and G6PDH [0.4 U/mL] solutions) LC-MS/MS Method: • HPLC Column: Agilent, Polaris 3 […], 150×2.0 mm (S/N: 533819), made in Netherlands. • Guard Column: Agilent, MonoChrom 3 C18 MetaGuard, 10×2.0 mm (S/N: 556145) • Column temperature: 40° C. • Mobile Phase A: 5 mM ammonium format in water (Optima) • Mobile Phase B: acetonitrile (Optima) • Flow rate: 0.2 mL/min • Gradient (Table on right) • MS: Thermo Q Exactive Plus.

[4] = test system: Dog Microsomes; assay: Metabolite screening of NPT-2042 in dog microsomes; assay type: in vitro ADME; settings: NPT-2042 10 uM, microsomes 1 mg/mL
Procedure: as §1

[5] = test system: Human Microsomes; assay: Metabolite screening of NPT-2042 in human microsomes; assay type: in vitro ADME; settings: NPT-2042 10 uM, microsomes 1 mg/mL
Procedure: as §1

[6] = oral, dose column 30 mg/kg, individual rats and Mean (N=3)
[7] = oral, dose column 30 mg/kg, individual rats and Mean (N=3), mean
[8] = rat, individual rats and Mean (N=3), 10 mg/kg
[9] = rat, individual rats and Mean (N=3), 10 mg/kg, mean
[10] = 1 hour, NADPH regenerating system

SMILES: CCCCNc1cc(C(=O)N(Cc2ccccc2)Cc2ccccc2)cc(S(N)(=O)=O)c1Oc1ccccc1 [NPT-2042, N,N-Dibenzyl 3-Aminosulfonyl-5-butylamino-4-phenoxybenzamide]
- concentration at 4 h ([1]; in vivo, oral, 30 mg/kg, oral, dose column 30 mg/kg, individual rats and Mean (N=3), read-out: NPT-2042 concentration, Time 4.00 h): 3.52 ng/mL
- concentration at 6 h ([1]; in vivo, oral, 30 mg/kg, oral, dose column 30 mg/kg, individual rats and Mean (N=3), read-out: NPT-2042 concentration, Time 6.00 h): 3.99 ng/mL
- concentration at 12 h ([1]; in vivo, oral, 30 mg/kg, oral, dose column 30 mg/kg, individual rats and Mean (N=3), read-out: NPT-2042 concentration, Time 12.00 h): 0.78 ng/mL
- Fabs (ratio), absolute bioavailability ([1]; oral 30 mg/kg vs IV 10 mg/kg): 0.0034
- NPT-2042 concentration, Time 0.50 h [1, 6]: 1.29 ng/mL and 1.67 ng/mL
- NPT-2042 concentration, Time 1.00 h [1, 6]: 2.14 ng/mL and 4.70 ng/mL and 2.45 ng/mL
- NPT-2042 concentration, Time 2.00 h [1, 6]: 2.88 ng/mL and 3.60 ng/mL
- NPT-2042 concentration, Time 4.00 h [1, 6]: 5.42 ng/mL and 4.73 ng/mL
- NPT-2042 concentration, Time 6.00 h [1, 6]: 2.49 ng/mL and 4.15 ng/mL
- NPT-2042 concentration, Time 8.00 h [1, 6]: 1.57 ng/mL and 2.57 ng/mL and 3.20 ng/mL
- NPT-2042 concentration, Time 12.00 h [1, 6]: 0.715 ng/mL and 0.731 ng/mL
- NPT-2042 concentration, Time 0.50 h [1, 7]: 1.66 ng/mL
- NPT-2042 concentration, Time 1.00 h [1, 7]: 3.10 ng/mL
- NPT-2042 concentration, Time 2.00 h [1, 7]: 3.49 ng/mL
- NPT-2042 concentration, Time 4.00 h [1, 7]: 4.56 ng/mL
- NPT-2042 concentration, Time 6.00 h [1, 7]: 3.54 ng/mL
- NPT-2042 concentration, Time 8.00 h [1, 7]: 2.45 ng/mL
- NPT-2042 concentration, Time 12.00 h [1, 7]: 0.742 ng/mL
- clearance ([2]; in vivo, NPT-2042, rat): 48 mL/min/kg
- Vd ([2]; in vivo, NPT-2042, rat, read-out: Vz): 10.8 L/kg
- half-life ([2]; in vivo, NPT-2042, rat, read-out: t½ (converted)): 157 min
- AUC(0-inf) ([2]; plasma, NPT-2042, rat): 3470 ng·h/mL
- Cmax ([2]; plasma, NPT-2042, rat): 2510 ng/mL
- Tmax ([2]; plasma, NPT-2042, rat): 4.8 min
- NPT-2042 concentration, Time 0.08 h [2, 8]: 3080 ng/mL and 2720 ng/mL
- NPT-2042 concentration, Time 1.00 h [2, 8]: 250 ng/mL and 1190 ng/mL and 924 ng/mL
- NPT-2042 concentration, Time 2.00 h [2, 8]: 477 ng/mL and 421 ng/mL
- NPT-2042 concentration, Time 4.00 h [2, 8]: 205 ng/mL and 218 ng/mL
- NPT-2042 concentration, Time 6.00 h [2, 8]: 203 ng/mL and 145 ng/mL and 60.8 ng/mL
- NPT-2042 concentration, Time 8.00 h [2, 8]: 20.0 ng/mL and 33.1 ng/mL and 87.3 ng/mL
- NPT-2042 concentration, Time 12.00 h [2, 8]: 60.8 ng/mL and 18.6 ng/mL and 4.67 ng/mL
- NPT-2042 concentration, Time 24.00 h [2, 8]: 0.257 ng/mL and 0.582 ng/mL and 1.95 ng/mL
- NPT-2042 concentration, Time 0.08 h [2, 9]: 2510 ng/mL
- NPT-2042 concentration, Time 1.00 h [2, 9]: 788 ng/mL
- NPT-2042 concentration, Time 2.00 h [2, 9]: 405 ng/mL
- NPT-2042 concentration, Time 4.00 h [2, 9]: 196 ng/mL
- NPT-2042 concentration, Time 6.00 h [2, 9]: 136 ng/mL
- NPT-2042 concentration, Time 8.00 h [2, 9]: 46.8 ng/mL
- NPT-2042 concentration, Time 12.00 h [2, 9]: 28.0 ng/mL
- NPT-2042 concentration, Time 24.00 h [2, 9]: 0.930 ng/mL
- concentration at 0.08 h ([2]; rat, plasma, iv, 10 mg/kg, rat, individual rats and Mean (N=3), read-out: NPT-2042 concentration, Time 0.08 h): 1720 ng/mL
- concentration at 2 h ([2]; rat, plasma, iv, 10 mg/kg, rat, individual rats and Mean (N=3), read-out: NPT-2042 concentration, Time 2.00 h): 317 ng/mL
- concentration at 4 h ([2]; rat, plasma, iv, 10 mg/kg, rat, individual rats and Mean (N=3), read-out: NPT-2042 concentration, Time 4.00 h): 165 ng/mL
- Rat Mic (MS Intensity) [3, 10]: 7.73E+07
- Rat Mic (MS Intensity) ([3]; T = 0): 4.15E+08
- Dog Mic (MS Intensity) [4, 10]: 1.85E+08
- Dog Mic (MS Intensity) ([4]; T = 0): 3.79E+08
- Human Mic (MS Intensity) [5, 10]: 1.64E+08
- Human Mic (MS Intensity) ([5]; T = 0): 3.71E+08
